The nature of data set [1]: Cytotoxicity in SH-SY5Y cells. Conditions: human.
Data set [2] in a line: Microsomal clearance, HLM. Conditions: human, microsomes.
In another data set the test system is WNV. In words: WNV antiviral assay in Vero cells with P-gp inhibitor. In kind it is cell-based. The settings on record: West Nile virus, read-out: WNV EC50 (Vero cells + Pgpi).
The next data set can be described thus: MDR1-MDCK permeability. In kind it is in vitro ADME. The settings on record: dog. Here is the method:
(§1) Figure 5. (A) Further characterization of ASAP-0027808. Papp was determined in MDR1-MDCK cells. Antiviral assays were performed in Vero E6 cells in a 7-day infection using 0.5 uM CP100356 as a P-gp inhibitor (see Supporting Information for more details). (B) The compound was successfully crystallized with ZIKV NS2B-NS3. ASAP-0016806 and ASAP-0027808 both appear to interact with the same residues (catalytic triad His51/Asp75/Ser135 colored yellow, other key residues Tyr161, NS2B Ser81, and NS2B Asp83 colored green). (C) Dose-dependent suppression of ZIKV-induced cytopathy in VeroE6 cells (n=2); no changes to cell viability of uninfected cells treated with the inhibitor was observed. Cells were co-treated with 0.5 μM CP100356 (as P-gp inhibitor). TEXT PRINTED IN THE PICTURE: (A) ASAP-0027808: ZIKV NS2B-NS3 Ki (μM): 0.090; ZIKV EC50 / CC50 (μM): 4.6 / >50; WNV NS2B-NS3 Ki (μM): 2.9; MW (g/mol): 313; CLint,app, HLM (μL/min/mg): < 10; MDR1-MDCK Papp A→B, B→A (10^-6 cm/sec): 2.0 ,11.0; Kinetic solubility (pH 7.4, μM): 279; LogD: 0.9

The test system of data set [3] is ZIKV. Put plainly: ZIKV antiviral assay in SH-SY5Y cells. It counts as cell-based. The settings on record: Zika virus.
A further data set deals with T1, WNV NS2B-NS3 protease (West Nile virus, UniProt P06935).
T1 construct: some activity against the WNV NS2B-NS3 protease
In words: WNV NS2B-NS3 protease biochemical inhibition.

Data set [4] in a line: Murine in vivo pharmacokinetics and tolerability. The settings on record: mouse. Also on record: species or system mice. An excerpt:
Figure 8. […] (B) ASAP-0036543 was assigned the (S) configuration by crystallography and the compound assumed a similar binding mode to that observed with ASAP-0029000. (C) Murine in vivo pharmacokinetics for ASAP-0036543. […] TEXT PRINTED IN THE PICTURE: (A) ASAP-0036543: ZIKV Ki (μM): 0.0029; ZIKV EC50 / EC90 / CC50 (μM, SH-SY5Y cells): 0.48 / 0.75 / 38; ZIKV EC50 / EC90 / CC50 (μM, Vero cells + pgpi): 0.38 / 0.98 / >50; WNV Ki (μM): 0.058; WNV EC50 / CC50 (μM, Vero cells + Pgpi): 1.0 / >50; %F (150, 300, 600 mpk): 96 / 153 / 223; Vd,ss (L/kg): 7.9; CLp (mL/min/kg): 87; CLint,app, HLM, MLM (μL/min/mg): < 10, <10; MDR1-MDCK Papp A→B, B→A (10^-6 cm/sec): 1.2, 16; KSol (pH 7.4, μM): 389; LogD: 1.0
The compound had high kinetic solubility, low microsomal clearance, and acceptable permeability in an MDR1-MDCK cell line. Respectable antiviral potency against WNV in Vero cells was also noted, which had been hitherto difficult to achieve with the chemotype. […] ASAP-0036543 was then advanced to murine pharmacokinetic studies to assess its potential as an in vivo tool compound.[31]

The next data set is described as follows: Kinetic solubility. Conditions: pH 7.4.
A further data set addresses T2, ZIKV NS2B-NS3 protease (Zika virus, UniProt A0A024B7W1).
T2 construct: directed at the co-expressed ZIKV NS2B-NS3 protease
In words: ZIKV NS2B-NS3 protease biochemical FRET assay. The settings on record: ZIKV NS2B-NS3 Ki.

Data set [5] has as its system ZIKV. In words: ZIKV antiviral assay (virus-induced cytopathy) in Vero E6 cells with P-gp inhibitor. In kind it is cell-based. The settings on record: Zika virus. On the procedure: as §1
The subject of another data set is Vero E6 cells. In words: Cytotoxicity in uninfected Vero E6 cells. It counts as cell-based. Conditions: Vero E6 cells, 0.5 uM CP100356 as P-gp inhibitor. On the procedure: as §1
The nature of data set [6]: Cytotoxicity in uninfected Vero E6 cells. In kind it is cell-based. Conditions: African green monkey; Vero cells + Pgpi, printed with WNV EC50; read-out: CC50 (WNV assay, Vero cells + Pgpi). On the procedure: as §1
Data set [7] can be described thus: Microsomal clearance, MLM. The settings on record: mouse, microsomes.

Values after ≈ are worked out from the molar mass of the structure shown. Read-outs that look alike come from different tables or passages of the source. Some results are limits rather than exact numbers.

T1 sequence (P06935 1424-1463): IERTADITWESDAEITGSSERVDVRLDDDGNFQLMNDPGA
T1 sequence (P06935 1502-1679): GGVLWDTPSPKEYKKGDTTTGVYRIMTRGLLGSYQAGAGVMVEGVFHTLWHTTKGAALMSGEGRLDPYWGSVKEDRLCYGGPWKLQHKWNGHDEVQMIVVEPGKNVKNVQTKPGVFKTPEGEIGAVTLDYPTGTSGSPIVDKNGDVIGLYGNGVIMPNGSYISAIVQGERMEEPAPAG
T2 sequence (A0A024B7W1 1503-1680): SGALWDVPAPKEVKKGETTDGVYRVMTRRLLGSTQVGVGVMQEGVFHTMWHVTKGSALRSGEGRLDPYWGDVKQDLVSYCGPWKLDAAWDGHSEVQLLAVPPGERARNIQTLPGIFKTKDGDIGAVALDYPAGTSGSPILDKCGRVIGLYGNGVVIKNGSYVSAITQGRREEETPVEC
T2 sequence (A0A024B7W1 1425-1464): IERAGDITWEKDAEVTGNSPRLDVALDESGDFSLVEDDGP

`Cc1cc([C@H](Nc2ccc3c(c2)CNC3)C(=O)NCC(F)F)cc(C(F)(F)F)c1` [ASAP-0036543]: the CC50 – broadly, the concentration giving 50% cytotoxicity – was 38000 nM in data set [1], over 50000 nM in the data set with Vero E6 cells and over 50000 nM in [6]. Further, the microsomal CLint in data set [2] and in data set [7] was under 10 µL/min/mg in each case. For the same compound, the half-maximal effective concentration (EC50) (usually the concentration giving half of the maximal effect) in the data set with WNV is 1000 nM; in the data set on ZIKV [3] (read-out: ZIKV EC50 (SH-SY5Y cells)), 480 nM; in the data set on ZIKV [5] (Vero C1008, 168 h, read-out: ZIKV EC50) it was 380 nM. Moreover, in the data set “MDR1-MDCK permeability” (MDCK-MDR1, A→B), the apical-to-basolateral permeability (Papp A→B) (commonly how fast a substance crosses the layer from the apical side) was determined as 1.2 ×10⁻⁶ cm/s. Also, the Papp B→A (as a rule, the apparent permeability from the basolateral to the apical side of a cell layer) in “MDR1-MDCK permeability” (MDCK-MDR1, B→A) amounted to 16 ×10⁻⁶ cm/s. The EC90 – broadly, the concentration at which the effect reaches the 90% level – with ZIKV [3] (read-out: ZIKV EC90 (SH-SY5Y cells)) was determined as 750 nM; with ZIKV [5] (Vero, read-out: ZIKV EC90 (Vero cells + pgpi)) it was 980 nM. The Ki (as a rule, a measure of affinity in units of concentration, obtained from inhibition or displacement) was 58 nM at WNV NS2B-NS3 protease and 2.9 nM at ZIKV NS2B-NS3 protease. For the same compound, the bioavailability in data set [4] (in vivo, 150 mg/kg, PO 150 mpk, read-out: %F) is 96%; in [4] (in vivo, 300 mg/kg, PO 300 mpk, read-out: %F), 153%; in data set [4] (in vivo, 600 mg/kg, PO 600 mpk, read-out: %F (oral bioavailability)) it was 223%. Moreover, the clearance in data set [4] (in vivo, read-out: CLp) stood at 87 mL/min/kg. Besides, in data set [4] (in vivo, read-out: Vd,ss), the Vd (in general, a proportionality between amount in the body and measured concentration, not a real space) was 7.9 L/kg. Moreover, the tolerability result in data set [4] (single PO doses of 150, 300 and 600 mg/kg) was “well-tolerated”. Also, the logD (as a rule, the decadic logarithm of the distribution of all forms, ionised or not, between an organic phase and buffer at a given pH) in the data set “LogD” turned out to be 1. The kinetic solubility (in general, solubility judged after dilution from a stock solution rather than from solid) in “Kinetic solubility” turned out to be 389 µM (≈ 161 µg/mL).
